# Experimental data: US5710170A, “Tri-aryl ethane derivatives as PDE IV inhibitors” (Merck Frosst Canada, Inc., priority 1996, dated 1998)
# Tested on: papillary muscle
# Assay: not given
# Conditions: general statement; cited from earlier work
row,SMILES,direct inotropic effects of known PDE inhibitors
1,Cc1[nH]c(=O)c(C#N)cc1-c1ccncc1 [milrinone],positive chronotropic and inotropic effects
2,COc1ccc(C2CNC(=O)C2)cc1OC1CCCC1 (stereo not shown) [rolipram],do not have any direct effects

# Molecular target: T1, GST-Met 248 PDE IVa (GST fusion protein of the human recombinant phosphodiesterase IVa (met-248)) (Homo sapiens, UniProt P27815)
# T1 construct: phosphodiesterase IVa (met-248); made in house; host or cells: Sf-9 insect cells (baculovirus)
# T1 sequence (P27815 248-886 limits assumed): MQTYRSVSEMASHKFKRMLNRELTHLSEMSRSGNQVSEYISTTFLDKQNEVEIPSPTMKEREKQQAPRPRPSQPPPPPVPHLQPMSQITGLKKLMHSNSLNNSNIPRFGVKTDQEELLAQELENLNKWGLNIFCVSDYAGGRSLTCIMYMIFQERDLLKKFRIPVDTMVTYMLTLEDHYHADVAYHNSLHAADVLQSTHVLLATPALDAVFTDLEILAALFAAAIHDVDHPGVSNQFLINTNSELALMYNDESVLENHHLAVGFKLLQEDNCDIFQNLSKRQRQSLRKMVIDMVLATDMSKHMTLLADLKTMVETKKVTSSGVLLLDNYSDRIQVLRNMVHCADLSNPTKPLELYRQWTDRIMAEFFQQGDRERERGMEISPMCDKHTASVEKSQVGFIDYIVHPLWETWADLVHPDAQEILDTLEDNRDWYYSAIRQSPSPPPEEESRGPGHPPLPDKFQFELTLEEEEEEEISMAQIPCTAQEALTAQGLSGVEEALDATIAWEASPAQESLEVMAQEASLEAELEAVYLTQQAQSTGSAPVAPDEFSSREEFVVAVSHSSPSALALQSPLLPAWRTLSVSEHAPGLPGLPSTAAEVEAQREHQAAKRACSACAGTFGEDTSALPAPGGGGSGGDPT
# Assay: SPA based PDE activity assay: inhibition of human recombinant PDE IVa (GST-Met 248)
# Format: biochemical
# Conditions: 100 nM cAMP; purified GST fusion protein, baculovirus/Sf-9 expression system
# Description: SPA Based PDE Activity Assay Protocol
# Compounds which inhibit the hydrolysis of cAMP to AMP by the type-IV cAMP-specific phosphodiesterases were screened in 96-well plate format as follows:
# In a 96 well-plate at 30° C. was added the test compound (dissolved in 2 ul DMSO), 188 ml of substrate buffer containing [2,8-^3 H] adenosine 3',5'-cyclic phosphate (cAMP, 100 nM to 50 μM), 10 mM MgCl2, 1 mM EDTA, 50 mM Tris, pH 7.5. The reaction was initiated by the addition of […] of human recombinant PDE-IV (the amount was controlled so that ~10% product was formed in 10 min. at 30° C.). The reaction was stopped after 10 min. by the addition of 1 mg of PDE-SPA beads (Amersham). The product AMP generated was quantified on a Microbeta 96-well plate counter. The signal in the absence of enzyme was defined as the background. 100% activity was defined as the signal detected in the presence of enzyme and DMSO with the background subtracted. Percentage of inhibition was calculated accordingly. IC50 value was approximated with a non-linear regression fit of the standard 4-parameter/multiple binding sites equation from a ten point titration.
# IC50 values shown in Table 4 were determined with 100 nM cAMP using the purified GST fusion protein of the human recombinant phosphodiesterase IVa (met-248) produced from a baculovims/Sf-9 expression system.
row,SMILES,IC50 [nM]
1,"COc1ccc([C@H](Cc2ccncc2)c2ccc(C(=O)NS(C)(=O)=O)cc2)cc1OC1CCCC1 [Example 1, N-{(R)-4-[1-(3-Cyclopentyloxy-4-methoxyphenyl)-2-(4-pyridyl)ethyl]benzoyl}methanesulfonamide]",4
2,"COc1ccc([C@H](Cc2ccncc2)c2ccc(C(=O)NS(=O)(=O)c3ccccc3)cc2)cc1OC1CCCC1 [Example 2, N-{(R)-4-[1-(3-Cyclopentyloxy-4-methoxyphenyl)-2-(4-pyridyl)ethyl]benzoyl}benzenesulfonamide]",0.5
3,"COc1ccc([C@H](Cc2ccncc2)c2ccc(C(=O)NS(=O)(=O)C(F)(F)F)cc2)cc1OC1CCCC1 [Example 3, N-{(R)-4-[1-(3-Cyclopentyloxy-4-methoxyphenyl)-2-(4-pyridyl)ethyl]benzoyl}trifluoromethanesulfonamide]",1
4,"COc1ccc([C@H](Cc2ccncc2)c2ccc(C(=O)NS(=O)(=O)c3ccccc3C)cc2)cc1OC1CCCC1 [Example 4, N-{(R)-4-[1-(3-Cyclopentyloxy-4-methoxyphenyl)-2-(4-pyridyl)ethyl]benzoyl}o-toluenesulfonamide]",0.4
5,"COc1ccc([C@H](Cc2ccncc2)c2ccc(CC(=O)NS(=O)(=O)c3ccccc3)cc2)cc1OC1CCCC1 [Example 5, N-{(R)-4-[1-(3-Cyclopentyloxy-4-methoxyphenyl)-2-(4-pyridyl)ethyl]phenylacetyl}benzenesulfonamide]",1.5
6,"COc1ccc([C@H](Cc2ccncc2)c2ccc(CC(=O)NS(=O)(=O)C(F)(F)F)cc2)cc1OC1CCCC1 [Example 6, N-{(R)-4-[1-(3-Cyclopentyloxy-4-methoxyphenyl)-2-(4-pyridyl)ethyl]phenylacetyl}trifluoromethanesulfonamide]",0.8
7,"COc1ccc([C@H](Cc2ccncc2)c2ccc(C(O)(C(F)(F)F)C(F)(F)F)cc2)cc1OC1CCCC1 [Example 7, (R)-4-{2-(3-Cyclopentyloxy-4-methoxyphenyl)-2-[4-(1,1,1,3,3,3-hexafluoro-2-hydroxypropan-2-yl)phenyl]ethyl}pyridine]",0.2
8,"COc1ccc(C(Cc2ccncc2)c2ccc(S(=O)(=O)NC(=O)c3ccccc3C)cc2)cc1OC1CCCC1 (stereo not shown) [Example 8, N-(o-Toluoyl)-4-[1-(3-Cyclopentyloxy-4-methoxyphenyl)-2-(4-pyridyl)ethyl]benzenenesulfonamide]",0.7

# Tested on: not given
# Assay: not given
# Conditions: used in asthma as a bronchodilator; cited from earlier work
row,SMILES,cardiovascular changes
1,Cn1c(=O)c2[nH]cnc2n(C)c1=O [theophylline],significant cardiovascular changes such as tachycardia

# Tested on: right atrial muscle
# Assay: not given
# Conditions: right atria; general statement; cited from earlier work
row,SMILES,direct chronotropic effects of known PDE inhibitors
1,Cc1[nH]c(=O)c(C#N)cc1-c1ccncc1 [milrinone],positive chronotropic and inotropic effects
2,COc1ccc(C2CNC(=O)C2)cc1OC1CCCC1 (stereo not shown) [rolipram],do not have any direct effects
